Assay results: article PMC10445491 (Frontiers in Chemistry, 2023)
“Also recorded” adds a separate entry of the source. Where two headings read alike, the source gives them in different places.

How the values were obtained:
[1] = biological target: neuraminidase from Clostridium perfringens (BNA) (Clostridium perfringens, UniProt P10481); format: binding
[2] = test system: neuraminidase from Clostridium perfringens (BNA, EC 3.2.1.18); format: biochemical; conditions: for fold higher inhibition than compound 6: ratio of IC50 vs compound 6
[3] = biological target: neuraminidase from Clostridium perfringens (BNA); format: biochemical; conditions: for Kinetic mode: Lineweaver-Burk and Dixon plots
[4] = sodium acetate buffer pH 5.0, substrate 100 μM, BNA 0.02 unit/mL, triplicate, read-out: IC50
[5] = Dixon plots, read-out: K i (inhibition constant)

Sequence of neuraminidase from Clostridium perfringens (BNA) (Clostridium perfringens, UniProt P10481) (P10481 whole entry, looked up): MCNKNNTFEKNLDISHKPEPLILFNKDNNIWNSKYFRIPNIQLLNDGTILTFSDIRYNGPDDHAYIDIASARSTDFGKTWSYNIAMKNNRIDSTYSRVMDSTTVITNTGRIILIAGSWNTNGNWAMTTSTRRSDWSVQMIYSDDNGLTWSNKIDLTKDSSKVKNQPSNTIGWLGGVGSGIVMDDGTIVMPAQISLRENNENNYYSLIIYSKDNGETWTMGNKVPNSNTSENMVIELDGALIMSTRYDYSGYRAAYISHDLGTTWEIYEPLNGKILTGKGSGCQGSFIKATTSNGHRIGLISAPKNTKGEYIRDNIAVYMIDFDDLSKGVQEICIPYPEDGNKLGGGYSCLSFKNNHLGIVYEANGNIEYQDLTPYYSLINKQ

Row | Molecule | Change of BNA fluorescence (FS) intensity with increasing inhibitor concentration [1] | K A (affinity constant) [1] [L/mol] | K SV (Stern-Volmer constant) [1] [L/mol] | n (binding number of xanthone to the BNA) [1] | fold more effective than compound 3 ([2]; ratio of IC50 vs compound 3) [fold] | fold higher inhibition than compound 6 [2] [fold] | IC50 [2, 4] [µM] | Ki [3, 5] [µM] | Kinetic mode [3] | Time-dependent (slow-binding) behaviour ([3]; preincubation 0-75 min) | Reversibility of inhibition ([3]; residual activity vs enzyme concentration (0.01, 0.02, 0.04 unit/mL)) | k 3 ([3]; slow-binding inhibition, forward rate of enzyme-inhibitor complex formation) [M⁻¹ s⁻¹] | Ki ([3]; slow-binding inhibition, preincubation with 0, 0.2, 0.4, 0.8 µM inhibitor, read-out: K i app) [µM] | k 4 ([3]; slow-binding inhibition, reverse rate) [min⁻¹] | fold more effective relative to gentisein ([2]; ratio of IC50 vs gentisein) [fold] | IC50 ([2]; text in the panels of supplementary Figure S36, read-out: IC50 printed in Figure S36) [µM]
1 | C=C(C)C(O)CC/C(C)=C/Cc1c(O)c(CC=C(C)C)c(O)c2c(=O)c3cc(O)ccc3oc12 (stereo not shown) [Compound 1, (E)-1,3,7-trihydroxy-4-(6-hydroxy-3,7-dimethylocta-2,7-dien-1-yl)-2-(3-methylbut-2-en-1-yl)-9H-xanthen-9-one] | decreased dramatically | 244300 | 157920 | 1.2897 | 100 | 30 | 0.38 ± 0.03 | 0.17 | competitive inhibitor | reversible slow-binding inhibition; also recorded: simple slow-binding inhibitor; also recorded: simple reversible slow binding behavior | reversible inhibitor | 141000 | 0.144 | 0.0203 |  | 
2 | CC(C)=CCc1c(O)c(C/C=C(\C)C/C=C/C(C)(C)O)c2oc3ccc(O)cc3c(=O)c2c1O [Compound 3, 1,3,7-trihydroxy-4-[(2E,5E)-7-hydroxy-3,7-dimethylocta-2,5-dien-1-yl]-2-(3-methylbut-2-en-1-yl)-9H-xanthen-9-one] |  | 20 | 1000 | 0.2168 |  |  | 35.8 ± 0.7 | 38.2 | Non-competitive |  |  |  |  |  |  | 
3 | C=C(C)CC(O)c1c(O)c(C/C=C(\C)CCC=C(C)C)c2oc3ccc(O)cc3c(=O)c2c1O (stereo not shown) [Compound 4, cratoxanthone A] |  | 55450 | 27140 | 0.7819 |  | 3 | 3.8 ± 0.1 | 4.2 | Non-competitive |  |  |  |  |  |  | 
4 | C=C(CCC=C(C)C)C(O)Cc1c(O)c(CC=C(C)C)c(O)c2c(=O)c3cc(O)ccc3oc12 (stereo not shown) [Compound 5, cratoxanthon F] |  | 1030 | 10230 | 0.4992 |  |  | 9.2 ± 0.2 | 9.1 | Non-competitive |  |  |  |  |  |  | 
5 | CC(C)=CCC/C(C)=C/Cc1c(O)c(CC=C(C)C)c(O)c2c(=O)c3cc(O)ccc3oc12 [Compound 6, cochinechinone A] |  | 1800 | 9860 | 0.4337 |  |  | 9.8 ± 0.3 | 9.6 | non-competitive inhibitor |  |  |  |  |  | 2 | 
6 | O=c1c2cc(O)ccc2oc2cc(O)cc(O)c12 [Gentisein, reference compound] |  | 110 | 5350 | 0.3701 |  |  | 21.4 ± 0.5 |  |  |  |  |  |  |  |  | 21.4
7 | (E)-1,3,7-trihydroxy-4-(7-hydroxy-3,7-dimethyloct-2-en-1-yl)-2-(3-methylbut-2-en-1-yl)-9H-xanthen-9-one [Compound 2] | did not decrease | 20 | 970 | 0.1796 |  |  | 38.9 ± 0.6 | 40.7 | Non-competitive |  |  |  |  |  |  | 
